Values joined by “and” are separate entries in the source; they are usually repeats but may differ in a detail not shown here. Identical values can stand only once.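 All cell lines were grown in 96-well plates and treated with compound for 48 hours. At the GI50, growth is halved. TGI: concentration producing complete growth inhibition.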
Assays:
Test in all cases: growth of human tumour cells (NCI), 48 h
HCT-116 colon = system: HCT-116 colon
DMS 114 small cell lung = system: DMS 114 small cell lung
SK-MEL-5 melanoma = system: SK-MEL-5 melanoma
UACC-257 melanoma = system: UACC-257 melanoma
786-0 renal = system: 786-0 renal
TK-10 renal = system: TK-10 renal
EKVX NSCLC = system: EKVX NSCLC
MDA-MB-435 = system: MDA-MB-435
DU-145 prostate = system: DU-145 prostate
M19-MEL melanoma = system: M19-MEL melanoma

Compound | GI50 (HCT-116 colon) | TGI (HCT-116 colon) | TGI (DMS 114 small cell lung) | GI50 (SK-MEL-5 melanoma) | TGI (SK-MEL-5 melanoma) | GI50 (UACC-257 melanoma) | TGI (UACC-257 melanoma) | GI50 (786-0 renal) | TGI (786-0 renal) | GI50 (TK-10 renal) | TGI (TK-10 renal) | GI50 (EKVX NSCLC) | TGI (EKVX NSCLC) | TGI (MDA-MB-435) | TGI (DU-145 prostate) | TGI (M19-MEL melanoma) | GI50 (MDA-MB-435) | GI50 (DU-145 prostate)
CCC[CH2][Sn]1([CH2]CCC)[O]C(=O)c2cc(C)ccc2[O]1 | 1.12 µM | 2.33 µM | 0.771 µM | 0.854 µM | 2.11 µM | 0.419 µM | 1.56 µM | 0.215 µM | 0.844 µM | 0.385 µM | 1.18 µM | 0.579 µM | 1.94 µM | – | – | – | – | –
NC(=O)NC(=O)C1CCCCC1C(=O)O (configuration not stated) | – | > 100 µM | – | – | > 100 µM | – | > 100 µM | – | > 100 µM | – | > 100 µM | – | > 100 µM | > 100 µM | > 100 µM | – | – | –
CC12OC3CC(O1)C1(C=O)C4CCC5(C)C(c6ccc(=O)oc6)CCC5(O)C4CCC1(C3)O2 (configuration not stated) | – | 0.399 µM | 0.191 µM | – | 0.328 µM | – | 0.774 µM | – | 0.246 µM | – | 0.472 µM | – | – | – | – | 1.16 µM | – | –
CCCCCCC1N=C(N)N=C(N)N1c1ccc(Cl)cc1 (configuration not stated) | 3.2 µM | 15.8 µM | – | 3.47 µM | 14.7 µM | 13 µM | 68.8 µM | 4.63 µM | 47.1 µM | 31.4 µM | > 100 µM | 8.7 µM | 45.4 µM | 17.5 µM | > 100 µM | – | 3.36 µM | 12.1 µM
CC(=O)OCC(=O)C1(O)C(C)CC2C3C=C(C)C4=Cc5c(cnn5-c5ccccc5)CC4(C)C3C(O)CC21C (configuration not stated) | 1.45 µM | 3.12 µM | – | 1.45 µM | 2.87 µM | 2.96 µM | 12.2 µM | 1.49 µM | 3.22 µM | 2.13 µM | 9.73 µM | 1.48 µM | 13.1 µM | 7.33 µM | 5.74 µM | – | 2.33 µM | 1.93 µM
CC[C@H](C)[C@H](NC(=O)C12CC(NC(C)=O)(C1)C2)C(=O)N(C)[C@H](C[C@@H](OC(C)=O)c1nc(C(=O)N[C@@H](Cc2ccccc2)C[C@H](C)C(=O)OC)cs1)C(C)C | 0.101 µM | > 16.7 µM | – | 0.0807 µM | 2.76 µM | 7 µM | > 16.7 µM | 0.395 µM | > 16.7 µM | > 4.97 µM | > 16.7 µM | 1.09 µM | > 16.7 µM | 0.501 µM | > 10.7 µM | – | 0.033 µM | 0.136 µM
CC[C@@]1(OC(=O)CN)C(=O)OCc2c1cc1n(c2=O)Cc2cc3c(N)c4c(cc3nc2-1)OCO4 | 0.000318 µM | > 100 µM | – | 0.000182 µM | 0.139 µM | 0.0158 µM | 0.228 µM | < 0.0001 µM | 0.0093 µM | 0.0167 µM and 0.104 µM | > 100 µM | 0.0808 µM | – | – | – | – | 0.00328 µM and 0.0183 µM | < 0.0001 µM
O=C1c2ccccc2C(=O)c2c(NC(=O)c3ccc4c5c(ncnc35)-c3ccccc3C4=O)cccc21 | – | > 100 µM | – | – | > 100 µM | – | > 100 µM | – | 84.7 µM | – | 47.6 µM | – | > 100 µM | > 100 µM | > 100 µM | – | – | –
CSc1ccc(C2=NN(C(=O)c3ccc(N)cc3)C(c3ccc(F)cc3)C2)cc1 (configuration not stated) | 1.73 µM | 3.93 µM | – | 5.66 µM | 18.8 µM | 20.4 µM | 35.6 µM | 13.5 µM | 27.1 µM | 7.5 µM | 26.1 µM | 16.6 µM | 34 µM | 23.6 µM | 24 µM | – | 6.55 µM | 10.6 µM
COc1cccc(Nc2nccc(Nc3ccc4[nH]ncc4c3)n2)c1 | 1.59 µM | 3.23 µM | – | 1.22 µM | 2.47 µM | 2.04 µM | 3.72 µM | 1.46 µM | 2.91 µM | 1.42 µM | 2.82 µM | 1.64 µM | 4.09 µM | 3.18 µM | 2.85 µM | – | 1.49 µM | 1.3 µM
CS(=O)(=O)c1nc(Cl)c(Cl)c(C#N)c1Cl | – | 4.47 µM | 32.2 µM | – | 15.5 µM | – | 5.52 µM | – | 4.11 µM | – | 5.91 µM | – | 27.4 µM | 7 µM | 21.4 µM | – | – | –
COC(=O)C1=Cc2c(OC)cc(OC)c(OC)c2[C@H](c2cc(OC)c(OC)cc2OC)C1C(=O)OC (some centres not stated) | – | > 100 µM | > 100 µM | – | > 100 µM | – | – | – | > 100 µM | – | > 100 µM | – | > 100 µM | – | – | > 100 µM | – | –
Cc1sc(/N=C2/NC(=O)CS2)nc1-c1nc(/N=C2/NC(=O)CS2)sc1C | 15.7 µM | > 50 µM | – | 31.2 µM | > 50 µM | > 50 µM | > 50 µM | > 50 µM | > 50 µM | > 50 µM | > 50 µM | 1.33 µM | > 50 µM | > 50 µM | > 50 µM | – | > 50 µM | > 50 µM
COC(=O)Nc1nc2ccc(Sc3ccccc3)cc2[nH]1 | 0.0771 µM | 10.1 µM | – | 0.146 µM | 4.08 µM | 3.08 µM | > 66.8 µM | 0.323 µM | 14.6 µM | 1.27 µM | 17.3 µM | 1.64 µM | 53.6 µM | 0.111 µM | 10.8 µM | – | 0.0307 µM | 0.336 µM
CCc1oc2ccc(OC)c3c2c1C=CC=C3 | – | – | – | – | > 100 µM | – | > 100 µM | – | > 100 µM | – | > 100 µM | – | > 100 µM | – | – | > 100 µM | – | –
CC(C)NC(=O)O/N=C1\CCC2[C@@H]3CC=C4C[C@@H](OC(=O)NC(C)C)CC[C@]4(C)C3CC[C@]12C (some centres not stated) | – | 4.94 µM | 1.98 µM | – | – | – | 2.4 µM | – | 4.01 µM | – | 3.15 µM | – | 3.42 µM | – | – | 2.81 µM | – | –
O=[N+]([O-])c1ccc(-c2ccccc2)c([As](=O)(O)O)c1 | 10.9 µM | 25.4 µM | – | 40.6 µM | > 100 µM | 21.7 µM | > 100 µM | 17.7 µM | 36.4 µM | 17.5 µM | 38.5 µM | 15.9 µM | > 100 µM | > 100 µM | 29 µM | – | 21.9 µM | 11.3 µM
N#CC(C#N)=Cc1ccc(-c2ccc(-c3nc4ccccc4o3)cc2)o1 | 18.2 µM | 42.3 µM | – | 13.1 µM | 62.5 µM | > 100 µM | > 100 µM | 15.8 µM | 34 µM | 23.7 µM | 77.3 µM | > 100 µM | > 100 µM | > 100 µM | > 100 µM | – | 57 µM | 36.5 µM
